Assay results taken from patent US11434222B2, “MAGL inhibitors” (H. LUNDBECK A/S, priority 2020, dated 2022).

What was measured:
MAGL = target: T1, MAGL (Mus musculus, UniProt O35678); test: In vivo MAGL inhibition in mouse brain proteomes after oral gavage; details: 5 mg/kg oral gavage, 4 h after administration, read-out: MAGL % inh. 5 mg/kg (mouse)
T1 construct: brain proteomes were prepared and analyzed according to previously established methods; from tissue; host or cells: brain of wild-type C57Bl/6J mice
T1 sequence (O35678 1-303): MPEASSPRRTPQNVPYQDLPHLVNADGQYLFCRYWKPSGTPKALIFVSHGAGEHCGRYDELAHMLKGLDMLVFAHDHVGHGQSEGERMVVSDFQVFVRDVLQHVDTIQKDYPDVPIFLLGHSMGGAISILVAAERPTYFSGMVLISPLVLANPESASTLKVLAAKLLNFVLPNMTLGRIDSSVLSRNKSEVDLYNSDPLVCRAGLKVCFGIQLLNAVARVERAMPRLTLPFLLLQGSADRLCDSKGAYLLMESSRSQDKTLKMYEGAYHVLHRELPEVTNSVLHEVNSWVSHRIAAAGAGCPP
Experimental: Inhibitors were administered to wild-type C57B1/6J by oral gavage in a vehicle of polyethylene glycol. Each animal was sacrificed 4 h following administration and brain proteomes were prepared and analyzed according to previously established methods (See Niphakis, M. J., et al. (2011) ACS Chem. Neurosci. and Long, J. Z., et al. Nat. Chem. Biol. 5:37-44).

[1] = Rat Kp, brain disposition after oral gavage; assay type: in vivo; details: for Total plasma concentration / Total blood concentration / Total brain concentration: 5 mg/kg oral gavage; for Total plasma concentration / Kp at 4 h / Kp uu at 4 h: 4 h; for Total plasma concentration: calculated from total blood concentration using blood to plasma ratio; for Total blood concentration / Total brain concentration: 4 h post dosing, mean n = 3; for Kp at 4 h / Kp uu at 4 h: male, Sprague-Dawley, po, 5 mg/kg p.o.; for Kp at 4 h: total brain concentration:total plasma concentration ratio; for Kp uu at 4 h: unbound brain concentration:unbound plasma concentration ratio
Experimental: Brain disposition was evaluated in male Sprague-Dawley rats (n=3, standard body weight). Briefly, test compound was formulated as a simple suspension, in 0.5% HPMC in water, then administered by oral gavage (5 mg/kg, 5 mL/kg). Four hours post dosing, rats were sacrificed, and terminal blood and brain samples were taken. Blood was obtained via cardiac puncture (0.1 mL) and was added into 0.4 mL CH3CN for precipitation immediately. The samples were stored at −75+/−15° C. prior to analysis. Brain tissue samples were collected after animals were fully exsanguinated, and the tissues were washed with cold saline quickly. After sectioning, brain sections were immediately frozen in liquid nitrogen and stored at −75+/−15° C. prior to analysis. Blood and brain samples were analyzed by LC/MS/MS using an optimized analytical method. Concentrations of test compound in blood and brain were quantified against matrix matched calibration standards. The total blood, plasma, and brain concentration data are presented in Table 2 alongside the calculated brain Kp (total brain concentration:total plasma concentration ratio), the calculated brain kp,uu (unbound brain concentration:unbound plasma concentration ratio), the free fractions in rat plasma and brain, and the in vitro rat blood to plasma distribution profile. The total plasma concentration data were calculated from the total blood concentration data using rat blood to plasma ratio which was measured in vitro (1 μM test compound). For kp,uu determination, the free fraction in rat plasma and brain homogenate were measured in vitro by standard equilibrium dialysis (1 μM test compound and 6 h equilibration against buffer pH 7.4; for rat plasma analysis, 100 mM stock solution of diisopropyl fluorophosphate was added to the pre-warmed rat plasma prior to adding test article).

[2] = In vitro human hepatocyte stability; assay type: in vitro ADME; details: cryopreserved human hepatocytes (pooled donor), human hepatocytes 0.5×10^6 cells/mL, read-out: Scaled-up unbound CLint
[3] = tested on: kainic acid induced seizures; test: Kainic acid seizure model in the rat; assay type: in vivo; details: for anticonvulsant effects in the kainic acid seizure test: rat; for magnitude of the effects in the kainic acid seizure test compared with reference: middle-high doses, reference Diazepam 16 mg/kg p.o.
Experimental: Kainic acid is an analog of the excitatory neurotransmitter, glutamate and acts as an agonist of kainic acid receptors. After systemic injection, kainic acid induces prolonged excitatory responses with many of the features of human temporal lobe epilepsy.
Rats, placed in individual Plexiglas cages (33×21×18 cm), are injected with kainic acid (20 mg/kg i.p.). The occurrences of the following symptoms are noted over a 120-minute period 30 minutes after kainic acid injection: forelimb clonus, rearings and rearings with falling, clonic convulsions, tonic convulsions and death. The presence of each symptom and the latencies to the first appearance of the symptoms are measured. The number of forelimb clonus is counted.
12 rats are studied per group. The test is performed partially blind.
The test substances will be evaluated at multiple doses, administered p.o. 240 minutes before the test, and compared with the corresponding vehicle control group (Group 2, administered with 10% HP-b-CD in distilled water, p.o. 240 minutes before the test).
Example 6 was evaluated at 0.3, 1, 3 and 10 mg/kg, and Example 8 was evaluated at 1, 3 and 10 mg/kg, administered p.o. 4 hours before the test, and compared with a vehicle control group (administered with 10% HP-b-CD, p.o. 4 hours before the test).
Diazepam (16 mg/kg) used as reference substance, was administered p.o. 60 minutes before the test (0.5% HP-b-CD) and was compared with vehicle controls.
Quantitative data (latencies) with the test substance was analyzed by comparing treated groups with vehicle control using Kruskal-Wallis test followed by Mann-Whitney U test. Quantitative data with the reference substance will be analysed using Mann-Whitney U test.
Quantal data (frequencies) were analyzed by comparing treated groups with vehicle control using Fisher's Exact Probability tests.

O=C(NC1CCOCC1)[C@H]1CC12CCN(C(=O)OC(C(F)(F)F)C(F)(F)F)CC2 [Example 8, 1,1,1,3,3,3-hexafluoropropan-2-yl (S)-1-[(oxan-4-yl)carbamoyl]-6-azaspiro[2.5]octane-6-carboxylate]
inhibition at 5 mg/kg (MAGL): 100%
Total plasma concentration [1]: 0.124 µM
Total blood concentration [1]: 0.119 µM
Total brain concentration [1]: 0.255 µM
Kp at 4 h [1]: 2.06
Kp uu at 4 h [1]: 0.801
CLint scaled at 1 μM [2]: 7.75 mL/min/kg
anticonvulsant effects in the kainic acid seizure test ([3]; dose-range 1-10 mg/kg p.o. 4 hours before the test): clear anticonvulsant effects
magnitude of the effects in the kainic acid seizure test compared with reference [3]: close to those observed with the reference substance, Diazepam

O=C(Nc1cccnn1)[C@H]1CC12CCN(C(=O)OC(C(F)(F)F)C(F)(F)F)CC2 [Example 6, 1,1,1,3,3,3-hexafluoropropan-2-yl (S)-1-(pyridazin-3-ylcarbamoyl)-6-azaspiro[2.5]octane-6-carboxylate]
inhibition at 5 mg/kg (MAGL): 100%
Total plasma concentration [1]: 0.576 µM
Total blood concentration [1]: 0.415 µM
Total brain concentration [1]: 1.78 µM
Kp at 4 h [1]: 3.09
Kp uu at 4 h [1]: 2.25
CLint scaled at 1 μM [2]: 5.79 mL/min/kg
anticonvulsant effects in the kainic acid seizure test ([3]; dose-range 0.3-10 mg/kg p.o. 4 hours before the test): clear anticonvulsant effects
magnitude of the effects in the kainic acid seizure test compared with reference [3]: close to those observed with the reference substance, Diazepam
